# From patent EP1038880B1, “Androstanes and pregnanes for allosteric modulation of GABA receptor” (priority 1994, dated 1995)
# Assays:
# [1] = test system: Bovine Uteral Progesterone Receptors; experiment: Inhibition of 3H-progesterone binding, uterus cytosol; conditions: competitor 10^-6M; 3H-progesterone 0.15 nM
# Experimental: The data presented were obtained by performing assays in accordance with the procedures described in et al. 1988 previously to determine the effect of progesterone metabolites and their derivatives and the progestin R5020 on the binding of [^3H]R5020 to the progesterone receptor in rat uterus (Gee et al. 1988).
# ^3H-progesterone (0.15 nM) was incubated with the rat uterus cytosol in the presence of the test compounds. The specific binding were determined after incubation and compared to the control incubation without the compounds. The data are expressed as percent inhibition of binding.
# In Table 3, rats were adrenalectomized 3 days prior to sacrifice. To isolate the mineralocorticoid receptor, brain cytosol fractions were prepared as describe in Gee, et al. 1988. The drugs were incubated with 3 nM of ^3H-aldosterone (the specific ligand for the mineralocorticoid receptor) in the presence of the selective type II agonist RU28362 (0.5 µM) which blocks ^3H-aldosterone binding to the type II (glucocorticoid) receptors. Table 2. Inhibition of 3H-Progesterone Binding to the Bovine Uteral Progesterone Receptors
# [2] = target: T1, Hippocampal Mineralocorticoid Receptors (Rattus norvegicus, UniProt P22199); experiment: Inhibition of 3H-aldosterone binding, brain cytosol; set-up: species or system rats; conditions: competitor 10^-6M; 3 nM 3H-aldosterone, RU28362 0.5 µM
# T1 construct: To isolate the mineralocorticoid receptor, brain cytosol fractions were prepared; from tissue; host or cells: rat brain (hippocampal) cytosol
# T1 sequence (P22199 1-981): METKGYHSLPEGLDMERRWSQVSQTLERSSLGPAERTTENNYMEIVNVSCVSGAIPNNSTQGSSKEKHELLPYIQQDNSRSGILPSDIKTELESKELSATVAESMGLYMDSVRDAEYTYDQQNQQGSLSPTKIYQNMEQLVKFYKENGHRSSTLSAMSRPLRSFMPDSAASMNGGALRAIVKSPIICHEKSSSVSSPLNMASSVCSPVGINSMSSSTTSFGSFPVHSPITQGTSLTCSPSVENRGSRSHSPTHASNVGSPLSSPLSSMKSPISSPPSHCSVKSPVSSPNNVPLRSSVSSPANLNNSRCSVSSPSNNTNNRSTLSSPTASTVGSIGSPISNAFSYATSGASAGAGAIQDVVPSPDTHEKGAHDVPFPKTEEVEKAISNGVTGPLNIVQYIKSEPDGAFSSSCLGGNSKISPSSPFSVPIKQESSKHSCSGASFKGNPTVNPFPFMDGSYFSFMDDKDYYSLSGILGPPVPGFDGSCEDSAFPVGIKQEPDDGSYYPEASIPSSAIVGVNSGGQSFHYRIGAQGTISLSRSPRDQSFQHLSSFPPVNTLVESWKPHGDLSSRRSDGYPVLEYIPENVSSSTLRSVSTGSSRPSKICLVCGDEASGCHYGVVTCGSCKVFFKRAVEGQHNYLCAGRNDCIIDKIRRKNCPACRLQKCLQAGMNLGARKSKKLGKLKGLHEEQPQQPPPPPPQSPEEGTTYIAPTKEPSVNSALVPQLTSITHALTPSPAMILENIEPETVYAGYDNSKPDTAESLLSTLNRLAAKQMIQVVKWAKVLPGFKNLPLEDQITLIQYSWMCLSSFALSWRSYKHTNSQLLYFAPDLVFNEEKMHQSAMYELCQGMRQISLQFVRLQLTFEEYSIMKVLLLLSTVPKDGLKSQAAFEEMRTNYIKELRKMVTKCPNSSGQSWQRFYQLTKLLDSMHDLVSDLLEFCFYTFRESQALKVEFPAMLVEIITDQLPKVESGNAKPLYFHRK
# Experimental: (§1) Various hormonal activities of representative neuroactive steroids were further studied through testing their potential estrogenic, mineralocorticoid and glucocorticoid activities. These activities were analyzed by monitoring the ability of the compounds to inhibit binding of the steroid hormones to their respective hormone receptors.
# In Table 3, rats were adrenalectomized 3 days prior to sacrifice. […] Table 2. Inhibition of 3H-Progesterone Binding to the Bovine Uteral Progesterone Receptors
# Table 3. Inhibition of 3H-Aldosterone Binding to Hippocampal Mineralocorticoid Receptors
# Glucocorticoid Receptors = target: T2, Glucocorticoid Receptors (Rattus norvegicus, UniProt P06536); experiment: Inhibition of 3H-dexamethasone binding, brain cytosol; set-up: species or system rats; dose or concentration left out as unconfirmed; conditions: read-out: % of Inhibition
# T2 construct: from tissue; host or cells: rat brain cytosol
# T2 sequence (P06536 1-795): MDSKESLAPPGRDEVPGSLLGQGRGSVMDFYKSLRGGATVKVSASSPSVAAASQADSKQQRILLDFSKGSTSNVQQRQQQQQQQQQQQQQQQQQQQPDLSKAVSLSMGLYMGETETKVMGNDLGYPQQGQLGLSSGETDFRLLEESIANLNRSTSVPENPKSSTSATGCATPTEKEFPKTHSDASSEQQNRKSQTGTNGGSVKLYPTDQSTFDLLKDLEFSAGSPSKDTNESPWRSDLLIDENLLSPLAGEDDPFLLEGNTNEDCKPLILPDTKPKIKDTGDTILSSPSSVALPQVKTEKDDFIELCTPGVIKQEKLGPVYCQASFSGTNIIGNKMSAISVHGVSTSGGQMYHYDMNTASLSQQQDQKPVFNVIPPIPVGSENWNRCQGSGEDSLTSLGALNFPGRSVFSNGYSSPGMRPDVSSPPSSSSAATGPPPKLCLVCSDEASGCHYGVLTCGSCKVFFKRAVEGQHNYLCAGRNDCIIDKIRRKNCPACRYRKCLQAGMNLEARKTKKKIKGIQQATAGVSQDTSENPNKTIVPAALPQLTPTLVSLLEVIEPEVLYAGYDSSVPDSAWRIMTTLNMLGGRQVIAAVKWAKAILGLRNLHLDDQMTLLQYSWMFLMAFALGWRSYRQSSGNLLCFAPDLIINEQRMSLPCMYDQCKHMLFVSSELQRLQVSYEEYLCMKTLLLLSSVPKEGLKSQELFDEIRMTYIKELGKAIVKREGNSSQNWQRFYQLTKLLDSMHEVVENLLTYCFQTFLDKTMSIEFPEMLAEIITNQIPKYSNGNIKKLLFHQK
# Experimental: as §1
# For Table 4, brain cytosol fractions were prepared as for Table 3, and the compounds were incubated with 3 nM of ^3H-dexamethasone (the specific ligand for the glucocorticoid receptor).
# Sprague-Dawley rats = experiment: Geller-Seifter conflict test; type: in vivo
# Source text: This animal model of human anxiety utilizes a conditioned state of conflict in rats to ascertain the anxiolytic properties of drugs. […] The first includes bar pressing under a variable […] schedule without punishment. The second component is a fixed ratio schedule with each bar press resulting in a positive reinforcement and a punishment. The punished component produces a state of conflict within the animal. […] An anxiolytic response would increase the punished responding without affecting the unpunished responding.
# Rats were housed individually under a 12-hour light-dark cycle with lights on from 0700-1900.
# Rats were trained in test chambers (Coulbourn instruments) with a lever mounted in one wall, a small dipper that delivered the 0.1-mL milk reward (1 part Eagle condensed : milk 2 parts water), and a metal grid floor through which the foot-shock punishment was administered. A DEC PDP 11/73 minicomputer nmning SKED (State Systems) was used for programming and recording.
# Rates initially learned to respond on a continuous reinforcement schedule and progressed rapidly to 30-sec, 1-min, and 2-min variable interval (VI) schedules. On the continuous reinforcement schedule, rats received milk reward following every lever press; on the VI schedules, milk rewards were available at infrequent and variable intervals, eventually at an average of once every 2 min. […] During conflict periods, which were signalled by the presentation of a light and a tone, the continuous reinforcement schedule was again in force and each lever press delivered both a milk reward and a brief ([…]) foot-shock Shock intensity was 0.2 mA initially, and.was increased daily in increments of 0.02 mA in order to gradually suppress lever pressing to 5 responses or less per conflict period. […] Drug-induced increases in the rate of punished responses were taken as an index of antianxiety activity, while decreases in the rate of unpunished responses were taken as an index of response depression or sedation.
# Rats = experiment: Vogel test; type: in vivo; conditions: i.c.v., g-CD
# Source text: The Vogel test is based on the development of a conflict between a highly motivated behavior and an aversion. For this test, the strong motivation is thirst. The animal is water deprived for 12-16 hrs to produce the motivation to drink. During the training period the animals are exposed to the testing environment so they become accustomed to the drinking spout and minimize the fear of a novel environment. Following training, the animals are allowed access to water for 2 hrs. During this time, the animals will drink and eat their normal amount of water and food, compensating for the deprivation time. However, this schedule still produces a strong motivation to drink during the testing period.
# Having been deprived of water for twelve to sixteen hours, an animal is placed in a test cage where it is allowed to drink freely for five minutes. This period is used to habituate the animal to the environment and the drinking spout. Following the training period, animals have access to water and food in their home cage for 2 hrs. Food is available at all times. Twenty-four hours later, drug is administered to the animal intracecebroventricularly.
# After an indicated delay started from the time of injection the animal is again placed in the test cage for ten minutes. A computer counts each time the animal licks, and after every twentieth lick administers a mild electric stimulus across the tongue and/or feet. The electrical stimulus consists of a 0.6 mA current with a duration of 100 msec. This procedure produces a state of conflict for the animal that is reduced by the administration of clinically used anxiolytic agents (i.e., Valium). For dose-response curves, separate groups of animals are injected with increasing doses of test drug and are tested at a predetermined time.
# Table 10. Anxiolytic Activity in Vogel Test in Rats
# GR complex = experiment: [35S]TBPS binding assay (inhibition of [35S]TBPS binding, cerebral cortex P2 homogenate); set-up: species or system rat; conditions: for modulation of [35S]TBPS binding, in words: even at very high concentrations (Figure 6)
# Outline: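 Rat (male Sprague-Dawley) cortical P2 homogenate (0.5 mg protein) in 50 mM Na/K phosphate pH 7.4, 200 mM NaCl, incubated with 2 nM [35S]TBPS plus steroid test compounds (DMSO) in presence of GABA plus (+)bicuculline, 25°C, 90 min. Filtration, scintillation counting; nonspecific binding defined with […].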
smiles,measurement,setting,value
"C[C@]12CC[C@@H](O)C[C@H]1CC[C@@H]1[C@@H]2CC[C@]2(C)[C@@H](C(=O)CO)CC[C@@H]12 [5β-pregnan-3α,21-diol-20-one]",% of Inhibition,[1],6%
same,inhibition at 1 µM,[2],13.8%
same,inhibition,Glucocorticoid Receptors,8.2%
CCOC[C@@]1(O)CC[C@@]2(C)[C@@H](CC[C@@H]3[C@@H]2CC[C@]2(C)[C@@H](C(C)=O)CC[C@@H]32)C1 [3α-hydroxy-3β-ethoxymethyl-5α-pregnan-20-one],Geller/ Seifter (% of control),"Sprague-Dawley rats; IP, 50% hpbcd, 40 mg/kg",3743 % of control
"CC(C)OC1CC2(C)C(CCC3C2CCC2(C)C(C(C)O)CCC32)CC1O (stereo not drawn) [3α,20α-Dihydroxy-2β-isopropoxy-5α-pregnane]",Vogel (%of control),Rats; 10 µg/kg,169.0 %of control
"CCC[C@H](O)[C@H]1CC[C@H]2[C@@H]3CC[C@H]4C[C@H](O)CC[C@]4(C)[C@H]3CC[C@]12C [3α,20α-Dihydroxy-21-ethyl-5α-pregnane]",Vogel (%of control),Rats; 20 µg/kg,225.8 %of control
"CC(=O)C1CCC2C3CCC4CC(O)(C(F)(F)F)CCC4(C)C3C(N(C)C)CC12C (stereo not drawn) [11α-N,N-Dimethylamino-3α-hydroxy-3β-trifluoromethyl-5β pregnan-20-one]",Geller/ Seifter (% of control),"Sprague-Dawley rats; IP, citrate, 20 mg/kg",145 % of control
"C[C@H](O)[C@H]1CC[C@H]2[C@@H]3CC[C@@H]4C[C@H](O)CC[C@]4(C)[C@H]3CC[C@]12C [5β-pregnan-3α,20α-diol]","modulation of [35S]TBPS binding, in words",GR complex,partially modulate
same,% of Inhibition,[1],0%
same,inhibition at 1 µM,[2],0%
COC[C@@]1(O)CC[C@@]2(C)[C@@H](CC[C@@H]3[C@@H]2CC[C@]2(C)[C@@H](C(C)=O)CC[C@@H]32)C1 [3α-Hydroxy-3β-methoxymethyl-5α-pregnan-20-one],Geller/ Seifter (% of control),"Sprague-Dawley rats; IP, 50% hpbcd, 10 mg/kg",958 % of control
COCC1(O)CCC2(C)C(CCC3C2CCC2(C)C(C(=O)CSS(=O)(=O)[O-])CCC32)C1.[Na+] (stereo not drawn) [sodium S-(3α-hydroxy-3β-methoxymethyl-5α-pregnan-20-on-21-yl) thiosulfate],IC50,"GR complex; 2 nM [35S]TBPS, rat cerebral cortex P2 homogenate",132 nM
same,IMAX,GR complex; maximum inhibition of [35S]TBPS binding,103%
same,Geller/ Seifter (% of control),"Sprague-Dawley rats; PO, water, 32 mg/kg",4487.5 % of control
"CC(O)C1CCC2C3CCC4CC(O)C(F)CC4(C)C3CCC12C (stereo not drawn) [2β-Fluoro-3α,20α-dihydroxy-5α-pregnane]",Vogel (%of control),Rats; 20 µg/kg,264.9 %of control
"C[C@H](O)[C@H]1CC[C@H]2[C@@H]3CC[C@H]4C[C@H](O)CC[C@]4(C)[C@H]3CC[C@]12C [3α,20α(S)-Dihydroxy-5α-pregnane]",Vogel (%of control),Rats; 10 µg/kg,193.0 %of control
"CC[C@H](O)[C@H]1CC[C@H]2[C@@H]3CC[C@H]4C[C@H](O)CC[C@]4(C)[C@H]3CC[C@]12C [3α,20α-Dihydroxy-21-methyl-5α-pregnane]",Vogel (%of control),Rats; 10 µg/kg,157.9 %of control
C[C@]12CCC(=O)C=C1CC[C@@H]1[C@@H]2[C@@H](O)C[C@]2(C=O)[C@@H](C(=O)CO)CC[C@@H]12 [Aldosterone],inhibition at 1 µM,[2],95.5%
"C[C@H](O)[C@H]1CC[C@H]2[C@@H]3CC[C@H]4C[C@H](O)CC[C@]4(C)[C@H]3CC[C@]12C [5α-pregnan-3α,20α-diol, reference compound]","modulation of [35S]TBPS binding, in words",GR complex,partially modulate
same,inhibition at 1 µM,[2],0%
same,Vogel (%of control),Rats; 10 µg/kg,283.3 %of control
same,Vogel (%of control),Rats; 20 µg/kg,267.3 %of control
